Data set [1] is classed as in vivo, rats. The settings on record: rat, oral nimodipine 12 mg/kg.
The format of data set [2] is in vivo, rats. As to conditions: rat, i.v. nimodipine 3 mg/kg, with pravastatin 0.3 and 1 mg/kg.
The target in a further data set is P-gp (Homo sapiens, UniProt P08183). Description: Rhodamine-123 retention assay in P-gp overexpressing MCF-7/ADR cells. The settings on record: 10 to 100 μM, 90 min, 20 μM rhodamine-123, MCF-7/ADR cells. It counts as cell-based.
Another data set deals with human CYP3A4 (Homo sapiens, UniProt P08684). In words: biochemical.
human CYP3A4, sequence (P08684 whole entry): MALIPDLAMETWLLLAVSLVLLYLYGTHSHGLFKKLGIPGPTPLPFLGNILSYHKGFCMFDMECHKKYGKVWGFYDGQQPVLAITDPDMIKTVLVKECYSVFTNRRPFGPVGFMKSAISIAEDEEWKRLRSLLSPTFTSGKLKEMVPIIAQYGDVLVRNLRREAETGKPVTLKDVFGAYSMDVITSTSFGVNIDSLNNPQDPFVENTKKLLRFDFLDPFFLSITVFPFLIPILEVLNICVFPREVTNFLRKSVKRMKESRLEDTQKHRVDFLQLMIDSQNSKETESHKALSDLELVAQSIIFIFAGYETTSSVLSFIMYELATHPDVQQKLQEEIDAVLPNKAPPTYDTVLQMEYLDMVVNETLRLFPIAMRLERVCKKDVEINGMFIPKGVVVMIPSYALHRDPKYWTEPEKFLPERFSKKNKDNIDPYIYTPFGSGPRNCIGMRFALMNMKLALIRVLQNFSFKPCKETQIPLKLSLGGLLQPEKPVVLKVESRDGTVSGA

Each structure is given as a SMILES string.

A word on the IC50: it is the concentration needed to halve the response being measured. Read a high IC50 as weaker potency in that assay.

P-gp, sequence (P08183 whole entry): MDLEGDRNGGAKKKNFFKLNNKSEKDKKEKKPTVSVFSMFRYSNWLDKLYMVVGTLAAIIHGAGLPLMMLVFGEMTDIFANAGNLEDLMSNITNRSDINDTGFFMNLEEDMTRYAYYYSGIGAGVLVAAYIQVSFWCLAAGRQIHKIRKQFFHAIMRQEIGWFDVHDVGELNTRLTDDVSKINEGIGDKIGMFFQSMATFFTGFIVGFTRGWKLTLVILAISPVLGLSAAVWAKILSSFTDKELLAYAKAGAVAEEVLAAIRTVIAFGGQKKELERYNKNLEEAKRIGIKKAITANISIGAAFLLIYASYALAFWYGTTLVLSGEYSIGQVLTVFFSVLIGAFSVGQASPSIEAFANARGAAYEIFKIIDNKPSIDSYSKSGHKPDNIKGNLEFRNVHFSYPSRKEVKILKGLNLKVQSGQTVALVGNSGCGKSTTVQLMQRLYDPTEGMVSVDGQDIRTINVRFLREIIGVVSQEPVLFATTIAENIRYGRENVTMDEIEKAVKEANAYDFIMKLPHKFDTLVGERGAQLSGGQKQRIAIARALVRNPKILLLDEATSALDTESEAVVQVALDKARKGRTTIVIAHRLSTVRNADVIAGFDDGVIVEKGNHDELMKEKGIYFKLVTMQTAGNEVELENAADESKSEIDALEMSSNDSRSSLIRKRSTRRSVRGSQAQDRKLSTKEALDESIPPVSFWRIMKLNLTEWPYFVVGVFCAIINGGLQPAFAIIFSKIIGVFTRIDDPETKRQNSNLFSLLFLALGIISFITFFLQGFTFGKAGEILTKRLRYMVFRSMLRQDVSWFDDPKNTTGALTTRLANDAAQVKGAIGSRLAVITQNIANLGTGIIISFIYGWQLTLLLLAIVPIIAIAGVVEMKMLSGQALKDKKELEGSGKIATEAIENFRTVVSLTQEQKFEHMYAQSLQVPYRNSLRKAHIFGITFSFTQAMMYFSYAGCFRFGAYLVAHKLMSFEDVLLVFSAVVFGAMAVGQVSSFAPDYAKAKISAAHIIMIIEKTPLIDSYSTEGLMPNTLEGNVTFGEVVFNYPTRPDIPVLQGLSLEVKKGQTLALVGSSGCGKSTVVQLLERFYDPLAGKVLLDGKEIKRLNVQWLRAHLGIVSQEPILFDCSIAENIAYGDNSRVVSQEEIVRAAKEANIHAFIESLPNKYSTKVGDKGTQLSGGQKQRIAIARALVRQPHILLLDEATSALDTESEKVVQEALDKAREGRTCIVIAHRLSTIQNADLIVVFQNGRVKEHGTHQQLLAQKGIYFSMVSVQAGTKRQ

In the case of `COCCOC(=O)C1=C(C)NC(C)=C(C(=O)OC(C)C)C1c1cccc([N+](=O)[O-])c1` (centres unmarked) [nimodipine, Nimodipine], the “increase of AUC0-∞ compared with the control group” value in data set [1] (with 1 mg/kg pravastatin, P < 0.05) came to 30.9%. For the same compound, in data set [1] (with pravastatin (1 mg/kg)), the “increase of AB compared with the oral control group” value was 31.1%. For the same compound, the “effect of concurrent pravastatin on the pharmacokinetics of i.v. nimodipine” value in data set [2] is reported as “not affected”.
Take `CC[C@H](C)C(=O)O[C@H]1C[C@H](O)C=C2C=C[C@H](C)[C@H](CC[C@@H](O)C[C@@H](O)CC(=O)O)[C@H]21` [pravastatin, Pravastatin]: the “effect on P-gp activity (cellular uptake of rhodamine-123)” value at P-gp was “did not significantly inhibit P-gp activity”. At human CYP3A4, this compound returned an IC50 of 14 µM.

These data come from article PMC3480797 (Indian Journal of Pharmacology, 2012).
